“And” between values parts separate entries of the source, which are not always exact repeats. Identical values can stand only once. Like-named read-outs stand apart in the source and are kept apart here.
Assays:
[1] = system: Yohimbin-Toxizität; test: Potentiation of yohimbine toxicity in mice (Methode 2); type: in vivo, Maus; conditions: Methode 2, mouse; for LD50, mg/kg p.o.: 1 h before yohimbine hydrochloride 20 mg/kg s.c., deaths after 18 h
Method: Die Toxizität von Yohimbin, einem Blocker präsynaptischer alpha-Rezeptoren, wird durch Antidepressiva potenziert (Literatur R.M. Quinton, Brit. J. Pharmac. 21 , 55-56 (1963)). Männliche Mäuse, NMRI-Stamm, 20-22 g, wurden in Versuchsgruppen zu n = 10 zugeordnet. Das Prüfpräparat wurde in 1 %igem wäßrigen Tylose@-Schleim suspendiert und im Volumen 10 ml/kg oral gegeben. Kontrollen erhielten nur das Vehikel.
Nach einer Vorbehandlungszeit von 1 Stunde erhielten alle Tiere eine allein nicht toxische Dosis von Yohimbin-Hydrochlorid, 20 mg/kg subkutan. Die verstorbenen Tiere wurden 18 Stunden nach dieser Behandlung ermittelt. (Berechnung der LDso mit Probit-Analyse).

[2] = system: Stereotypien; test: Induction of stereotypies in rats (Methode 3); type: in vivo; conditions: Methode 3, rat, p.o.; dose up to which no stereotypies were seen
From the text: Die Versuche wurden an Wistar-Ratten, männlich, 130-140 g durchgeführt. Die Stereotypien wurden in den ersten beiden Stunden nach Substanzgabe in 15-Minuten-Intervallen beurteilt, danach bis zur 6. Stunde in halbstündigen Intervallen. Die folgende Skala wurde benutzt.
Die Punktzahlen wurden errechnet alß Gesamtzahl pro 6 Stunden, dividiert durch die Zahl der Beobachtungen.
Der EDso-Wert ist die Dosis, bei der die Hälfte der maximal möglichen Punktzahl (5 Punkte multipliziert mit der Zahl der Beobachtungen) erreicht wird.

[3] = system: Tetrabenazin-Ptosis; test: Effect on tetrabenazine ptosis (TBZ method, Methode 1); type: in vivo, Maus; conditions: for ED50: Mus musculus
Method: Sechs männl. Tieren wird die entsprechende Menge eines Homogenats der jeweiligen Substanz in wäßriger Carboxymethylcellulose oder Methyl-hydroxyethylcellulose 30 Min. vor der Behandlung mit Tetrabenazin (40 mg/kg intraperitoneal) mit Schlundsonde gefüttert. […]

[4] = system: Tiermodelle, prädiktiv für antidepressive Wirkung beim Menschen; test: General pharmacological testing in animal models predictive of antidepressant action in man; type: in vivo; conditions: result in words
From the text: Bei der pharmakologischen Untersuchung des (+)-Enantiomeren der Verbindung der Formel I wurden unerwartet starke Wirkungen dieser Substanz in Tiermodellen, die als prädiktiv für antidepressive Wirkung beim Menschen gelten, gefunden.
Die pharmakologischen Prüfungen wurden mit bekannten Modellen, die als prädiktiv für antidepressive Wirkung beim Menschen gelten, durchgeführt. Das sind beispielsweise: die Beeinflussung der Tetrabenazin-Ptosis bei der Maus und die Potenzierung der Yohimbin-Toxizität bei Mäusen. Als weiteres Beurteilungskriterium wurde beispielsweise die Prüfung der Auslösung von Stereotypien an Ratten herangezogen.

[5] = system: Aufnahme von 14C-Noradrenalin in Synaptosomen; test: Inhibition of noradrenaline reuptake in synaptosomes (Methode 4); type: biochemical, Ratte; conditions: 50 % inhibition of 14C-noradrenaline uptake, 37 °C, 4 min
Method: Synaptosomen aus Rattenhirn werden nach der Methode von Whittaker (Handbook of Neurochemistry 2 , 327-364, Editor A. Lajtha; London and New York, 1969) isoliert und die Monoamin-Aufnahme nach der Methode von Schacht und Heptner gemessen (Biochemical Pharmac. 23 , 3413-3422). Die 14C Noradrenalin-Aufnahme wurde in einem Krebs-Henseleit-Bikarbonatpuffer pH 7,4, der 11 Millimol Glucose enthielt, gemessen. 2,5 ml der Synaptosomen-Suspension wurden mit markiertem Noradrenalin bei 37 ° C inkubiert in Gegenwart von oder ohne Testsubstanz. Die Inkubationszeit betrug 4 Minuten. Die weitere Aufnahme wurde dann durch Abkühlen mit Eis gestoppt. Um nichtspezifische Adsorptionen auszuschließen, wurden Kontrollproben bei 0 ° C unter sonst gleichen Bedingungen inkubiert.
Die aufgenommenen Noradrenalinmengen wurden mit Hilfe der Membranfiltrationstechnik mit einem Millipore Sampling Manifold mit Cellulosenitratfiltern von 25 mm Durchmesser und 0,6 Mikrometer Porengröße gemessen. Die Synaptosomen wurden unter vermindertem Druck gesammelt und die Radioaktivität in einem Packard-Tricarb-Scintillationszähler bestimmt. Die Menge an angesammeltem Noradrenalin wurde angegeben als Prozent Radioaktivität, die zur Inkubationsmischung zugesetzt wurde.
Die ICso-Werte (inhibitory concentration) der nachstehenden Tabellen geben die Konzentrationen der Testsubstanzen an, welche die Aufnahme von ^14C-Noradrenalin zu 50 % hemmen.

[6] = system: Tiermodelle, prädiktiv für antidepressive Wirkung beim Menschen; conditions: as named in Deutsche Patentanmeldung P 36 28 545.5; cited from earlier work
[7] = read-out: ED50, mg/kg p.o. (Vertrauensgrenzen), Methode 1, mouse, 30 min before tetrabenazine 40 mg/kg i.p., confidence limits in brackets, repeated determinations
[8] = Methode 1, mouse, p.o., 30 min before tetrabenazine 40 mg/kg i.p., confidence limits in brackets, repeated determinations, read-out: ED50, mg/kg p.o. (Vertrauensgrenzen)
[9] = Methode 1, mouse, 30 min before tetrabenazine 40 mg/kg i.p., confidence limits in brackets, repeated determinations

SMILES	LD50, mg/kg p.o. [1]	keine Stereotypien bis [2]	ED50 [3, 7]	ED50; mg/kg p.o. (Vertrauensgrenzen) [3, 9]	also measured
OC1(C(c2cccc(Cl)c2)n2ccnc2)C2CC3CC(C2)CC1C3 (stereo not drawn)	4,4 mg/kg	> 300 mg/kg			
COc1ccc(C(n2ccnc2)C2(O)C3CC4CC(C3)CC2C4)cc1OC (stereo not drawn)	3,0 mg/kg		3 mg/kg		
Cc1cccc(C(n2ccnc2)C2(O)C3CC4CC(C3)CC2C4)c1 (single isomer, unassigned; enantiomere) [(-)-Enantiomere der Verbindung I]					pharmakologische Wirkung [4]: pharmakologisch unwirksam
OC1(C(c2cccc(Cl)c2)n2ccnc2)C2CC3CC(C2)CC1C3 (single isomer, unassigned; (+)) [(+)-(2-Hydroxy-2-adamantyl)-1-imidazolyl-(3-chlorphenyl)-methan]					pharmakologische Wirkung [4]: geringere Wirkung
OC(C(c1cccc(Cl)c1)n1ccnc1)C12CC3CC(CC(C3)C1)C2 (stereo not drawn)	8,5 mg/kg	> 30 mg/kg			ED50 [3, 8]: 3.7 mg/kg
CC(C)(C)C(O)C(c1ccc(-c2ccccc2)cc1)n1ccnc1 (stereo not drawn)	5,3 mg/kg	> 30 mg/kg			ED50 [3, 8]: 3 mg/kg; IC50 [5]: > 1000 nM
OC1(C(c2cccc(Cl)c2)n2ccnc2)C2CC3CC(C2)CC1C3 (single isomer, unassigned)	8,5 (0,5-130) mg/kg	> 30 mg/kg	2.9 mg/kg	2,3 (0,9-5,8) mg/kg	LD50, mg/kg p.o. ([1]; 1080 min): 4,6 mg/kg; IC50 [5]: 120 nM
Cc1cccc(C(n2ccnc2)C2(O)C3CC4CC(C3)CC2C4)c1 (single isomer, unassigned; (+)) [Beispiel 1]	2,9 (0,2 - 41,3) mg/kg	keine Stereotypien bis 100 mg/kg p.o.	1.3 mg/kg and 1.75 mg/kg	1,2 (0,3 - 3,5) mg/kg and 1,9 (1,0 - 3,5) mg/kg and 1,4 (0,7 - 2,7) mg/kg	LD50 umgerechnet (F:O,68) auf äquimolare Menge Base (nach Beispiel 2) ([1]; p.o., tested as hydrogentartrate, converted to equimolar amount of base, 1080 min): 2,0 (0,1 - 28,1) mg/kg
OC1(C(c2ccc3ccccc3c2)n2ccnc2)C2CC3CC(C2)CC1C3 (stereo not drawn)	3,2 mg/kg		3 mg/kg		
Cc1cccc(C(n2ccnc2)C2(O)C3CC4CC(C3)CC2C4)c1 (stereo not drawn) [(2-Hydroxy-2-adamantyl)-1-imidazolyl-3-tolyl-methan]					antidepressive Wirkung in prädiktiven Tiermodellen [6]: antidepressiv wirksam
C=CCC1(C(O)C(c2cccc(Cl)c2)n2ccnc2)CCCCC1 (stereo not drawn)			3.9 mg/kg	6,1 (0,5-72,9) mg/kg	
Cc1cccc(C(n2ccnc2)C2(O)C3CC4CC(C3)CC2C4)c1 (stereo not drawn) [drawing 18]	7,1 mg/kg	> 30 mg/kg	1.5 mg/kg	1,7 (0,5-5,9) mg/kg	IC50 [5]: 120 nM
CCCC(C)(C)C(O)C(c1ccc(-c2ccccc2)cc1)n1ccnc1 (stereo not drawn)	24,5 mg/kg	keine Stereotypien			

From patent EP0421199A2, “(+)-(2-Hydroxy)-2-adamantyl)-1-imidazolyl-3-tolyl-methane and its salts, process for its preparation, medicine containing this compound and its use” (HOECHST AKTIENGESELLSCHAFT, priority 1989, dated 1991)
